The values that follow come from patent publication EP4458804A1, “METHOD FOR PRODUCING AN OBJECT, PHENALEN-1-ONE COMPOUND AND USE THEREOF” (TriOptoTec GmbH, priority 2023, dated 2024).

Molecules are shown by their SMILES.

A short description of data set [1]: Incorporation of photocatalysts into TPU films versus process time, absorption spectroscopy against blank film (Beispiele 7a-9b). The data set is classed as physicochemical. The settings on record: TPU Folie, Rezeptur 1; Beispiel 7b, Tabelle 41. How it is done: Im nächsten Schritt wurde die Verwendbarkeit der verschiedene Photokatalysatorklassen, ausgewählt aus Phenalen-1-on-Derivaten, Curcumin-Derivaten und Porphycen-Derivaten, mit unterschiedlichen Eigenschaften - von neutral unpolar bis ionisch polar - auf Ihre Verwendbarkeit und Wirkung im Verfahren untersucht.
Zur Beurteilung der optimalen Prozesszeit bei Einsatz der Photokatalysatoren, wurden TPU Folienstücke nach Beschreibung in Beispiel 4 zu je 1, 2, 5 und 10 min in den Imprägnierlösungen behandelt, gegebenenfalls auch 30 und 60 min bei undeutlichen Ergebnissen.
Als Basisformulierung wurde Rezeptur 1 nach Beispiel 2 verwendet.
Nach der angegebenen Prozesszeit wurden die Folie entnommen, mit Wasser gewaschen und für 1h bei 40°C getrocknet/abgelüftet.
Die Folien wurden durch Absorptionsspektroskopie gegen ein Blank-Folienstück direkt vermessen, beim Maximum der Absorption des Photokatalysators. Dabei ergaben sich in Abhängigkeit der Prozesszeit folgende Werte, die in den Tabellen 40 bis

Data set [2] can be described thus: Two-component system (kit of parts): impregnation of TPU films, visual colouring and resistance to rubbing/washing (Beispiel 6a/6b). The data set is classed as physicochemical. The settings on record: TPU Folien; 2K-System Beispiel 6a (Aceton/Isopropanol). An excerpt:
Um eine Mehrkomponenten-System bereitzustellen, bei dem vorzugsweise flüchtigere Hilfskomponenten, die gegebenenfalls regelmäßiger im Prozess ergänzt werden müssen, in einer separaten Komponente bereitgestellt werden können, wurde zunächst folgendes 2K-System getestet.
Grundkomponente (A): Eine Mischung aus 40,0% w/w Aceton, 30,0% w/w Isopropanol und […] w/w Wasser wurden homogen vermengt. Die Mischung war dicht verschlossen > 12 Monate bei Raumtemperatur lagerbar.
Zusatzkomponente (B): Eine Mischung aus 3,0% w/w Phenoxyethanol, 3,0% w/w EDTA und 0,1 bis 2,0 % Photokatalysator in Wasser wurden homogen verrührt. Die Mischung war dicht verschlossen in dunklen Flaschen > 6 Monate bei Raumtemperatur lagerbar.
Beide Lösungen wurden vor dem Prozess zu gleichen Teilen gemischt, gefolgt von einer 1:5 Verdünnung mit Wasser. Nach guter Durchmischung war die Lösung gebrauchsfertig.
Bei F-64a und F-73 war eine schwache Gelb- bzw.
Grundkomponente (A) enthielt eine Mischung aus 30,0% w/w Dimethylsuccinat, 33,0% w/w 1,2-Propandiol, 12,0% w/w Tween 20 und 25,0 % Wasser.
Zusatzkomponente (B) enthielt eine Mischung aus 2,0 Gew.-% Phenoxyethanol, 2,0 Gew.-% EDTA und 0,1 Gew.-% bis 1,6 Gew.-% Photokatalysator, jeweils bezogen auf das Gesamtgewicht der Zusatzkomponente (B), wobei die entsprechenden Bestandteile in Wasser gelöst wurden und anschließend homogen verrührt wurden.
Die Komponenten wurden vor Gebrauch im Verhältnis A zu B 2:1 gemischt, gefolgt von einer 1:1 Verdünnung mit Wasser. Nach guter Durchmischung war die Lösung gebrauchsfertig.

In another data set the test system is S.aureus ATCC 6538. Put plainly: Antibacterial activity of impregnated films, modified ISO 22196 with illumination (Beispiele 11-16, 25). The data set is classed as cell-based. The settings on record: Beispiel 14; TPU film; Rezeptur 1 (nach Beispiel 1); 1 mM photocatalyst in impregnation solution; light 20mW/cm2 10min.
Data set [3] has as its system S. aureus. The experiment in a line: Bactericidal effect after steam sterilisation (Beispiel 20), modified ISO 22196. The data set is classed as cell-based. The settings on record: TPU Folie, Rezeptur 1, 1 mM F-24b; after Dampfsterilisation 121°C, 2 h. From the text:
(§1) Die Bestimmung der antimikrobiellen Aktivität erfolgte nach einer modifizierten Version der ISO 22196:2011-08 ("Messung von antibakterieller Aktivität auf Kunststoff- und anderen porenfreien Oberflächen", Ausgabedatum: 2011-08).
(§2) Bei der Testdurchführung wurde ein dünner Flüssigkeitsfilm, in dem die Bakterien enthalten sind (1,25 x 10^4 /cm^2), direkt auf die Probenkörper (3 x 3 cm) aufgebracht. Direkt nach Beimpfung wurden von der Nullprobe die Bakterien von den Probenkörperoberflächen mittels Ultraschall und Vortexen abgelöst und die Keimzahl (KBE (engl. CFU), Kolonie-bildende Einheit) bestimmt (t0-Wert).
(§3) Nach 4h wurden überlebende Bakterien von den Probenkörperoberflächen mittels Ultraschall und Vortexen abgelöst und die Keimzahl bestimmt (t4-Wert).
(§4) Im Unterschied zu der in der ISO 22196:2011-08 beschreibenen Methode wurde das Inokulum nicht mit einer Folie abgedeckt und die Inkubationszeit wurde von 24 auf 4 Stunden reduziert. Weiterhin wurden die Probenkörper der Proben 3 und 4 mit Licht der Intensität 20mW/cm2 für 10min belichtet, um eine biozide Wirkung nach Bestrahlung mit elektromagnetischer Strahlung zu bestimmen.
Weiterhin wurde die Belastbarkeit des Photokatalysators in der Folie mit zusätzlichen Tests wie Tempern bei 80°C und Dampfsterilisation bei 121°C untersucht.

In data set [4] the test system is S. aureus. The experiment in a line: Bactericidal effect after tempering (Beispiel 19), modified ISO 22196. Type of data set: cell-based. The settings on record: TPU film, Rezeptur 1, 1 mM.
From the text: as §1, §2, §3, §4
Weiterhin wurde die Belastbarkeit des Photokatalysators in der Folie mit zusätzlichen Tests wie Tempern bei 80°C und Dampfsterilisation bei 121°C untersucht. […]

Data set [5] in a line: Comparative examples 23-25: impregnation of unsuitable plastics or with a fluorescent dye, visual evaluation. The data set is classed as physicochemical. The settings on record: 0,2 mm starke Polycarbonatfolien; 60 min Einwirkzeit. The protocol: Die Farbstoffkonzentration in der Imprägnierlösung betrug jeweils 1 mM bei Phenalen-1-on- und Curcuminderivaten, 0,1 mM bei Prophycenderivaten.
Es wurden 0,2 mm starke Polycarbonatfolien eingesetzt und mit Imprägnierlösungen enthaltend die Photokatalysatoren F-24b, F-64a oder F-73 behandelt.
Es wurden TPU Folien eingesetzt und mit einer Imprägnierlösung enthaltend den Farbstoff 2-Chloro-6-(3-hydroxypropylamino)-1-phenalenon (CAS 113722-81-9) behandelt.

For data set [6], the system named is S. aureus. The experiment in a line: Bactericidal effect after leaching/washing stress B and C (Beispiel 18), modified ISO 22196. The data set is classed as cell-based. The settings on record: TPU film, Rezeptur 1, 1 mM.
From the text: as §1, §2, §3, §4
Um die Haltbarkeit des Photokatalysators innerhalb der Folie bzw. dessen Auswaschen gegen gängige Reinigungsmittel zu untersuchen, wurden damit Immersionstest in Wasser und 70% Isopropanol durchgeführt.
Die Folien wurden anschließend mit dem unter B) und C) beschrieben Belastungsverfahren mit den in den Tabellen gezeigten Medien behandelt und in ihrer Wirksamkeit vor/nach Belastung verglichen.

For the compound `CC(C)(O)c1cc[n+](CC2=Cc3cccc4cccc(c34)C2=O)cc1` [F-24b], the “Abs. 1 min” value in data set [1] is 0,185. Besides, the “Abs. 2 min” value in data set [1] is given as 0,198. Further, the “Abs. 5 min” value in data set [1] was 0,257. Also, the “Abs. 10 min” value in data set [1] was 0,456. Further, the “Imprägnierung / Färbung der Folie” value in data set [2] was “mit den vorherigen Daten vergleichbar”. Besides, the “Log10 Reduktion Hauptprobe” value is given as 4,0 ± 0,3 log10 in the data set on S.aureus ATCC 6538; 1,5 ± 0,3 log10 in the data set with S. aureus [3]; 3,0 ± 1,1 log10 in the data set on S. aureus [4] (After 1 Woche 80°C Tempern); 4,1 ± 0,1 log10 in the data set with S. aureus [4] (After 1 h 80 °C Tempern); 1,9 ± 0,5 log10 in the data set with S. aureus [6] (After Auswaschen nach DIN EN 16105, procedure B), Wasser (dest.)); 1,9 ± 0,6 log10 in the data set with S. aureus [6] (After Screening Test - Immersion, procedure A), 70% Isopropanol). Besides, the “Log10 Reduktion Hauptprobe” value in the data set on S. aureus [6] (After Screening Test - Immersion, procedure A), Wasser (dest.)) is on record as 3,3 ± 0,7 log10; in the data set on S. aureus [6] (After Washability nach DIN EN ISO 11998, procedure C), cleaner Neutraldesinfizierend), 4,5 ± 0,6 log10; in the data set with S. aureus [6] (After Washability nach DIN EN ISO 11998, procedure C), cleaner Sauer-oxidierend), 4,8 ± 0,3 log10. Further, the Verfärbung result in data set [5] is given as “keine Verfärbung”.
